From patent US20110313034A1, “NEUROACTIVE PLANT EXTRACT FROM HYPERICUM POLYANTHEMUM” (UNIVERSIDADE FEDERAL DO RIO GRANDE DO SUL, priority 2009, published 2011)
Blank lines part the entries; values can stand above or below the molecule they belong to.

Tests used:
monoamine oxidase A = molecular target: T1, monoamine oxidase A (Rattus norvegicus, UniProt P21396); details: mitochondria from rat brain; cited from earlier work
T1 construct: in preparations of mitochondria from rat brain; from tissue; host or cells: rat brain mitochondria
T1 sequence (P21396 1-526): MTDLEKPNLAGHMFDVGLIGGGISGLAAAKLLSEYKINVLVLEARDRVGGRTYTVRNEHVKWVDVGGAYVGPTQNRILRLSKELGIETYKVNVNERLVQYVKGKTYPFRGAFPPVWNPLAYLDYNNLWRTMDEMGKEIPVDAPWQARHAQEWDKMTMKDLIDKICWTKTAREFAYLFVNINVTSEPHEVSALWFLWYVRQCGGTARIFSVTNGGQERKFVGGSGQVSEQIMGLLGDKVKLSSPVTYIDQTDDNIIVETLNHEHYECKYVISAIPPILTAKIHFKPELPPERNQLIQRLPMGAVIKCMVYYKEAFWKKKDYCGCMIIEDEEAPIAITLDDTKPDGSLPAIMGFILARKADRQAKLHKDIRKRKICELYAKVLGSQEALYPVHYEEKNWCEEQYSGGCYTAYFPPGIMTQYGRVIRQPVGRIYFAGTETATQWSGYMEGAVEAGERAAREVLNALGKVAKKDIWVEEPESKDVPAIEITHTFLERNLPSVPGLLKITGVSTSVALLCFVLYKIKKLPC

sites of uptake of DA = molecular target: T2, sites of uptake of DA (Rattus norvegicus, UniProt P23977); assay: binding of [3H]-mazindol to sites of uptake of DA, striatum membranes; details: 3×10^−7-3×10^−11 g/mL
T2 construct: in synaptosomes prepared from striatum, hypothalamus and frontal cortex, respectively; from tissue; host or cells: striatum (synaptosomes; membranes)

sites of uptake of NA = molecular target: T3, sites of uptake of NA (Rattus norvegicus, UniProt Q9WTR4); assay: binding of [3H]-nisoxetina to sites of uptake of NA, hypothalamus membranes; details: 3×10^−7-3×10^−11 g/mL
T3 construct: in synaptosomes prepared from striatum, hypothalamus and frontal cortex, respectively; from tissue; host or cells: hypothalamus (synaptosomes; membranes)

sites of uptake of 5-HT = molecular target: T4, sites of uptake of 5-HT (Rattus norvegicus, UniProt P31652); assay: binding of [3H]-citalopram to sites of uptake of 5-HT, frontal cortex membranes; details: 3×10^−7-3×10^−11 g/mL
T4 construct: in synaptosomes prepared from striatum, hypothalamus and frontal cortex, respectively; from tissue; host or cells: frontal cortex (synaptosomes; membranes)

G proteins = assay: direct incubation of membranes with HP4, [35S]GTPγS binding; assay type: biochemical, rats
Method: To evaluate the effect of POL on DA, NA, 5-HT and opioids receptors, we used the technique of binding of [^35S] GTPγS stimulated by DA, NA, 5-HT and DAMGO in membranes prepared from striatum, hypothalamus, frontal cortex and thalamus of rats, respectively. […] GTPγS stimulated by DA, NA and 5-HT, while 5 days of treatment with 90 mg/kg, decreases this binding. […] This time profile of action coincides with the modern theories that the antidepressant effect is related to neuroadaptation processes.
GTPγS to its site. […] These changes can occur through other regulatory mechanisms or are related to HP4 metabolites produced after administration in vivo of POL. […] GTPγS stimulated by agonists after different treatment regimens with saline and POL.

immobility time of mice = assay: Porsolt's forced swimming test (FST) in mice; assay type: in vivo, CF1 mice; details: 90 mg/kg, p.o.
Method: The species H. caprifoliatum, H. carinatum, H. connatum, H. myrianthum, H. piriai, H. polyanthemum and H. cordatum, and three isolated benzopyrans of H. polyanthemum (HP1, HP2, and HP3) were tested for inhibitory activity of monoamine oxidase A and B in preparations of mitochondria from rat brain.
Results are expressed as mean±SEM. * Significant difference compared to the SAL group (water+polysorbate 80, 5%, 1 ml/kg, p.o.) # significant difference compared to POL270 (ANOVA F(7,79)=5.9, p<0.001).
Results are expressed as mean±SEM. *Significant difference compared to the SAL group (water+polysorbate 80, 5%, 1 ml/kg, p.o.) (ANOVA, F(2,29)=15.5, p<0.001).
POL was active in rats (270 mg/kg/day, p.o.) and mice (180, 270 and 360 mg/kg, p.o.). The action of POL in the FST was blocked by administration of SCH 23390 (dopamine D1 antagonist) […], i.p., and sulpiride (D2 dopamine antagonist) 50 mg/kg, ip, (FIG. 1). HP4 was active at a dose of 90 mg/kg, p.o. in mice (FIG. 2).

[1] = molecular target: T5, synaptosomal reuptake of dopamine ([3H]-DA) (Rattus norvegicus, UniProt P23977); assay: synaptosomal reuptake of dopamine ([3H]-DA), striatum synaptosomes; assay type: biochemical; design: in synaptosomes prepared from striatum, hypothalamus and frontal cortex, respectively; from tissue; host or cells: striatum (synaptosomes; membranes)
Description: (§1) The effect of HP4 (3×10^−4-3×10^−11 g/mL) on synaptosomal reuptake of dopamine ([^3H]-DA), noradrenaline ([^3H]-NA) and serotonin ([^3H]-5HT) in synaptosomes prepared from striatum, hypothalamus and frontal cortex, respectively. […] This profile differs from other antidepressants, which inhibit the reuptake of monoamines through competition for binding site on the transporter.

[2] = molecular target: T6, synaptosomal reuptake of noradrenaline ([3H]-NA) (Rattus norvegicus, UniProt Q9WTR4); assay: synaptosomal reuptake of noradrenaline ([3H]-NA), hypothalamus synaptosomes; assay type: biochemical; design: in synaptosomes prepared from striatum, hypothalamus and frontal cortex, respectively; from tissue; host or cells: hypothalamus (synaptosomes; membranes); details: synaptosomes from hypothalamus; HP4 3×10^−4-3×10^−11 g/mL; read-out: IC50, synaptosomal uptake of NA
Description: as §1

[3] = molecular target: T7, synaptosomal reuptake of serotonin ([3H]-5HT) (Rattus norvegicus, UniProt P31652); assay: synaptosomal reuptake of serotonin ([3H]-5HT), frontal cortex synaptosomes; assay type: biochemical; design: in synaptosomes prepared from striatum, hypothalamus and frontal cortex, respectively; from tissue; host or cells: frontal cortex (synaptosomes; membranes); details: synaptosomes from frontal cortex; HP4 3×10^−4-3×10^−11 g/mL; read-out: IC50, synaptosomal uptake of 5-HT
Description: as §1

corticosterone = assay: serum and cortical corticosterone in mice subjected to forced swimming (radioimmunoassay); assay type: in vivo; details: three days of treatment, POL 360 mg/kg p.o., imipramine 20 mg/kg, bupropion 30 mg/kg; for serum levels of corticosterone: forced swimming
Method: Data are presented as mean±SEM. *p<0.01 compared to respective group without swimming; #p<0.01 compared to SAL with swimming. Legend: (A) X axis—corticosterone levels (μg/100 mL plasma); Blank values: no swimming; values hatch: with swim, (B) X axis—cortical Corticosterone (pg/100 mg tissue).
We evaluated the action of POL (360 mg/kg, p.o.) on serum and cortical levels of corticosterone in mice subjected or not to stress caused by forced swimming. The concentration of corticosterone present in the samples was measured by radioimmunoassay.

[4] = molecular target: T5, synaptosomal reuptake of dopamine ([3H]-DA); details: in vitro; cited from earlier work
[5] = molecular target: T6, synaptosomal reuptake of noradrenaline ([3H]-NA); details: in vitro; cited from earlier work
[6] = molecular target: T7, synaptosomal reuptake of serotonin ([3H]-5HT); details: in vitro; cited from earlier work
[7] = system: synatosomal reuptake of GABA; details: in vitro; cited from earlier work
[8] = system: synatosomal reuptake of glutamate; details: in vitro; cited from earlier work

T5 sequence (P23977 whole entry): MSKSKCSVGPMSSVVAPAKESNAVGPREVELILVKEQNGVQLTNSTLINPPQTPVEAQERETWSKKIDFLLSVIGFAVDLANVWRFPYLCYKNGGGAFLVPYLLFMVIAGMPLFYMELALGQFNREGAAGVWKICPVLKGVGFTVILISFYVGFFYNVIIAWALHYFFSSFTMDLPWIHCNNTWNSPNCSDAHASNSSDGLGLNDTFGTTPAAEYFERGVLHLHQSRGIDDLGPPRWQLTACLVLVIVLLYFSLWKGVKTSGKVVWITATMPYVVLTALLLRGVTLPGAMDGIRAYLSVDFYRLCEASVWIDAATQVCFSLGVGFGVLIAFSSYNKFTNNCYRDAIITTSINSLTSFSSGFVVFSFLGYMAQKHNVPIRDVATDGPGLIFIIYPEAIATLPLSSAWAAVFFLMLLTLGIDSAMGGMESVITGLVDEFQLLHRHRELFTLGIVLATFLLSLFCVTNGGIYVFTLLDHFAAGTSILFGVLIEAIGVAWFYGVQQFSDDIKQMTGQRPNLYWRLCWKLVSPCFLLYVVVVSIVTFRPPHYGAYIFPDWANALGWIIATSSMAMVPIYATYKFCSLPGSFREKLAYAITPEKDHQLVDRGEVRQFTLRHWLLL
T7 sequence (P31652 whole entry): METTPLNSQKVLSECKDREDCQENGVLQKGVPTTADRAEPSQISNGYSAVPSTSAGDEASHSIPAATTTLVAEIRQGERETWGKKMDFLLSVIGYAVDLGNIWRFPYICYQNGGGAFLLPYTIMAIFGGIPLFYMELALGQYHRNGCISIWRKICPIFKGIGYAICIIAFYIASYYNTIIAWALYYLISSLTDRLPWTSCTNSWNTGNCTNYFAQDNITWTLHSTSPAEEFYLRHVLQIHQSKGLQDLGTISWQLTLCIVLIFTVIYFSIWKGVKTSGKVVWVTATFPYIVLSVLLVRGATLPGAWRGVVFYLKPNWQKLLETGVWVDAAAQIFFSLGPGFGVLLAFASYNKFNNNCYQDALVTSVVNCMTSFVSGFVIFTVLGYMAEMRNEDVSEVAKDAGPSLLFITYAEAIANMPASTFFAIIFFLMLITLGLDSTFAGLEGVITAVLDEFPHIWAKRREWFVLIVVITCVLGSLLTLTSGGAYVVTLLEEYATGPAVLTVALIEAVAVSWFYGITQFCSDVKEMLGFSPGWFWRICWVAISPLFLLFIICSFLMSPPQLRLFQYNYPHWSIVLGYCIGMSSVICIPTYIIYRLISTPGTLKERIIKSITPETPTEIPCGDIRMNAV
T6 sequence (Q9WTR4 1-597): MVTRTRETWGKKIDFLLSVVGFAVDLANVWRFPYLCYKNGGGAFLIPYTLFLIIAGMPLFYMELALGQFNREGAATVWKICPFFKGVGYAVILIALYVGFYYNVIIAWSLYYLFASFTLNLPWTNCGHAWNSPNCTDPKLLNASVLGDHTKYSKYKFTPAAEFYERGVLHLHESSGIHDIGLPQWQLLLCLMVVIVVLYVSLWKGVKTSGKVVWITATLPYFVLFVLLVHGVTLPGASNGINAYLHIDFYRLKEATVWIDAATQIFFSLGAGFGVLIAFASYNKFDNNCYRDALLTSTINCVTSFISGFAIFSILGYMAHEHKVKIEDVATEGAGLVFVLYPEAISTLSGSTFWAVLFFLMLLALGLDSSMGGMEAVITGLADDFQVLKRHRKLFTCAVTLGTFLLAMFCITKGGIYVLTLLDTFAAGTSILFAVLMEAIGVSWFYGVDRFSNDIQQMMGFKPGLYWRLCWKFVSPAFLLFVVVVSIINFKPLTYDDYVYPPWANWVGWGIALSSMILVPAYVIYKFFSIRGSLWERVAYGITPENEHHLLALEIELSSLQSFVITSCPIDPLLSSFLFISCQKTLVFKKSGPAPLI
T4 sequence (P31652 whole entry): as the sequence (P31652 whole entry) above
T2 sequence (P23977 whole entry): as the sequence (P23977 whole entry) above
T3 sequence (Q9WTR4 1-597): as the sequence (Q9WTR4 1-597) above

Molecule: COc1cc2c(c(O)c1C(=O)C(C)C)C=CC(C)(C)O2 [HP3, 5-hydroxy-6-isobutyryl-7-methoxy-2,2-dimethyl-benzopyran]
- IC50 (monoamine oxidase A): 22.2 µM

- effect on binding of [3H]-mazindol to sites of uptake of DA (sites of uptake of DA): did not affect the binding
- effect on binding of [3H]-nisoxetina to sites of uptake of NA (sites of uptake of NA): did not affect the binding
- effect on binding of [3H]-citalopram to sites of uptake of 5-HT (sites of uptake of 5-HT): did not affect the binding
- effect on binding of [35S]GTPγS to its site (G proteins): did not alter the binding
- IC50 for dopamine relative to IC50 for NA and 5-HT (reuptake selectivity) ([1]; in vitro synaptosomal reuptake): almost three times smaller
- IC50 ([1]; synaptosomes from striatum, HP4 3×10^−4-3×10^−11 g/mL, read-out: IC50, synaptosomal uptake of DA): 0.09 ± 0.038 µM
- IC50 [2]: 0.28 ± 0.048 µM
- IC50 [3]: 0.252 ± 0.013 µM
Molecule: CC(C)C(=O)C1=C(O)C(C)(C)C(O)=C(Cc2c(O)c3c(c(C(=O)C(C)C)c2O)OC(C)(C)C=C3)C1=O [HP4, uliginosin B]
- activity in forced swimming test (immobility time of mice): active

Molecule: CC(NC(C)(C)C)C(=O)c1cccc(Cl)c1 (stereo not shown) [bupropion]
- level of cortical corticosterone raised by forced swimming (corticosterone): alters both serum and cortical levels
- serum levels of corticosterone (corticosterone): alters both serum and cortical levels

Molecule: CN(C)CCCN1c2ccccc2CCc2ccccc21 [imipramine]
- level of cortical corticosterone raised by forced swimming (corticosterone): alters both serum and cortical levels
- serum levels of corticosterone (corticosterone): alters both serum and cortical levels

Molecule: hyperforin
- inhibition of synaptosomal reuptake of dopamine [4]: inhibit
- inhibition of synaptosomal reuptake of norepinephrine [5]: inhibit
- inhibition of synaptosomal reuptake of serotonin [6]: inhibit
- inhibition of synaptosomal reuptake of GABA [7]: inhibits
- inhibition of synaptosomal reuptake of glutamate [8]: inhibits
